We go through 26 molecules from US9139581B2 (PORTOLA PHARMACEUTICALS, INC., priority 2008, dated 2015).

pIC50: −log10 of the molar value. Bounds are passed on as bounds.

One may read the pIC50 as −log10 of the IC50, conventionally taken in molar units.

The first experiment addresses T1, full length active recombinant SYK enzyme (Homo sapiens, UniProt P43405).
T1 construct: full length active recombinant SYK enzyme (Millipore, Calif.); purchased Millipore
The experiment in a line: Inhibition of Syk tyrosine phosphorylation activity (LANCE TR-FRET). The note with it: Table 3; 1 nM SYK, 100 μM ATP; read-out: Syk IC50 code. In kind it is biochemical. Summed up: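 The reaction is quenched with buffer holding Eu-anti-phosphotyrosine and streptavidin-APC, and detection runs 1 hr at room temperature. TR-FRET is read and IC50s come from non-linear regression.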
(In general: Time-resolved FRET reads energy transfer from a long-lived donor to a nearby acceptor.)
For the molecule `CN(C)CC(=O)N(C)c1ccc(Nc2nc(NC3CCC3)c3cc[nH]c3n2)cc1` [Example 84, N-(4-(4-(cyclobutylamino)-7H-pyrrolo[2,3-d]pyrimidin-2-ylamino)phenyl)-2-(dimethlamino)-N-methylacetamide], the pIC50 is 6.00 to 7.00.
On the same count and under the same terms, the figure for `N[C@H]1CC[C@@H](Nc2nc(Nc3ccc4c(c3)CCC(=O)N4)ncc2F)CC1` [Example 140, 6-(4-((1s,4s)-4-aminocyclohexylamino)-5-fluoropyrimidin-2-ylamino)-3,4-dihydroquinolin-2(1H)-one] is 6.00 to 7.00; for `CC(=O)N1CCN(c2ccc(Nc3nc(NCC4CCNCC4)c4c(C#N)c[nH]c4n3)cc2)CC1` [Example 45, 2-(4-(4-acetylpiperazin-1-yl)phenylamino)-4-(piperidin-4-ylmethylamino)-7H-pyrrolo[2,3-d]pyrimidine-5-carbonitrile] it is 6.00 to 7.00; for `CN1C(=O)CCc2cc(Nc3nc(NCc4ccccc4)c4c(-c5ccncc5)c[nH]c4n3)ccc21` [Example 114, 6-(4-(benzylamino)-5-(pyridin-4-yl)-7H-pyrrolo[2,3-d]pyrimidin-2-ylamino)-1-methyl-3,4-dihydroquinolin-2(1H)-one] it is 6.00 to 7.00.
Take `CC(C)(CN)CNc1nc(Nc2ccc3cn[nH]c3c2)nc2[nH]ccc12` [Example 60, N4-(3-amino-2,2-dimethylpropyl)-N2-(1H-indazol-6-yl)-7H-pyrrolo[2,3-d]pyrimidine-2,4-diamine]: the pIC50 is less than 6.00.
On the same count and under the same terms, as for `CC(=O)N1CCN(c2ccc(Nc3nc(NCCOCCN)c4cc[nH]c4n3)cc2)CC1` [Example 93, 1-(4-(4-(4-(2-(2-aminoethoxy)amino)-7H-pyrrolo[2,3-d]pyrimidin-2-ylamino)phenyl)piperazin-1-yl)ethanone], the figure is 6.00 to 7.00.
Same read-out and setting: the figure for `CC(=O)N(C)c1ccc(Nc2nc(NCCCCN)c3cc[nH]c3n2)cc1` [Example 62, N-(4-(4-(4-aminobutylamino)-7H-pyrrolo[2,3-d]pyrimidin-2-ylamino)phenyl)-N-methylacetamide] is 7.00 to 8.00; for `CN(C)CCNC(=O)CN1C(=O)CCc2cc(Nc3nc(NC4CCC4)c4cc[nH]c4n3)ccc21` [Example 71, 2-(6-(4-(cyclobutyamino)-7H-pyrrolo[2,3-d]pyrimidine-2-ylamino)-2-oxo-3,4-dihydroquinolin-1(2H)-yl)-N-(2-(dimethylamino)ethyl)acetamide] it is 6.00 to 7.00; for `CCCCOC(C)c1c[nH]c2nc(Nc3ccc4cn[nH]c4c3)nc(NC3CC3)c12` (stereo not drawn) [Example 41, 5-(1-butoxyethyl)-N4-cyclopropyl-N2-(1H-indazol-6-yl)-7H-pyrrolo[2,3-d]pyrimidine-2,4-diamine] it is 6.00 to 7.00.
On to `N#Cc1c[nH]c2nc(Nc3ccc4c(c3)CCC(=O)N4)nc(NC3CC3)c12` [Example 103, 4-(cyclopropylamino)-2-(2-oxo-1,2,3,4-tetrahydroquinolin-6-ylamino)-7H-pyrrolo[2,3-d]pyrimidine-5-carbonitrile], for which the pIC50 is 8.00 to 9.00.
As to `CC(=O)N(C)c1ccc(Nc2ncc(F)c(N3CCC(CNC(=O)OC(C)(C)C)CC3)n2)cc1` [Example 28, tert-butyl (1-(5-fluoro-2-(4-(N-methylacetamido)phenylamino)pyrimidin-4-yl)piperidin-4-yl)methylcarbamate], the pIC50 is less than 6.00.
Consider `NC(=O)CNc1nc(Nc2ccc3cn[nH]c3c2)nc2[nH]ccc12` [Example 83, 2-(2-(1H-indazol-6-ylamino)-7H-pyrrolo[2,3-d]pyrimidin-4-ylamino)acetamide], for which the pIC50 was 6.00 to 7.00.
Still for that read-out and setting: the figure for `CC(=O)N(C)c1ccc(Nc2nc(NC3CC3)c3c(C#N)c[nH]c3n2)cc1` [Example 105, N-(4-(5-cyano-4-(cyclopropylamino)-7H-pyrrolo[2,3-d]pyrimidin-2-ylamino)phenyl)-N-methylacetamide] is 7.00 to 8.00; for `O=C1CCc2cc(Nc3ncc(F)c(N4CCC(CO)CC4)n3)ccc2N1` [Example 39, 6-(5-fluoro-4-(4-(hydroxymethyl)piperidin-1-yl)pyrimidin-2-ylamino)-3,4-dihydroquinolin-2(1H)-one] it is 6.00 to 7.00.
The same measure, in the same setting: the figure for `CC(=O)N1CCN(c2ccc(Nc3nc(NC4CC4)c4c(-c5ccncc5)c[nH]c4n3)cc2)CC1` [Example 4, 1-(4-(4-(4-(cyclopropylamino)-5-(pyridin-4-yl)-7H-pyrrolo[2,3-d]pyrimidin-2-ylamino)phenyl)piperazin-1-yl)ethanone] is 7.00 to 8.00; for `COCCNc1nc(Nc2ccc3cn[nH]c3c2)nc2[nH]ccc12` [Example 89, N^2-(1H-indazol-6-ylamino)-N^4-(2-methoxyethyl)-7H-pyrrolo[2,3-d]pyrimidine-2,4-diamine] it is 6.00 to 7.00; for `Brc1c[nH]c2nc(Nc3ccc4cn[nH]c4c3)nc(NC3CCC3)c12` [Example 49, 5-bromo-N4-cyclobutyl-N2-(1H-indazol-6-yl)-7H-pyrrolo[2,3-d]pyrimidine-2,4-diamine] it is 8.00 to 9.00.
With `CNC(=O)COc1cccc(Nc2nc(Nc3ccc4cn[nH]c4c3)nc3[nH]ccc23)c1` [Example 78], the pIC50 is 7.00 to 8.00.
Same read-out and setting: the figure for `NC(=O)CNS(=O)(=O)c1ccc(Nc2nc(NC3CCC3)c3cc[nH]c3n2)cc1` [Example 54, 2-(4-(4-(cyclobutylamino)-7H-pyrrolo[2,3-d]pyrimidin-2-ylamino)phenylsulfonamido)acetamide] is 7.00 to 8.00.
The same measure, in the same setting: the figure for `CNc1nc(Nc2ccc3cn[nH]c3c2)nc2[nH]cc(-c3cccnc3)c12` [Example 3, N2-(1H-indazol-6-yl)-N4-methyl-5-(pyridin-3-yl)-7H-pyrrolo[2,3-d]pyrimidine-2,4-diamine] is 7.00 to 8.00.
As for `COC(=O)N(C)c1ccc(Nc2nc(NC3CCC3)c3cc[nH]c3n2)cc1` [Example 72, Methyl 4-(4-(cyclobutylamino)-7H-pyrrolo[2,3-d]pyrimidin-2-ylamino)phenyl(methyl)carbamate], the pIC50 was 6.00 to 7.00.

Still in this experiment, the particulars now being: Table 4; 1 nM SYK, 100 μM ATP; read-out: syk IC50.
For the molecule `NC[C@@H]1CCCN1c1nc(Nc2ccc3cn[nH]c3c2)nc2[nH]ccc12` [(S)-4-(2-(aminomethyl)pyrrolidin-1-yl)-N-(1H-indazol-6-yl)-7H-pyrrolo[2,3-d]pyrimidin-2-amine], the pIC50 was less than 6.00.
Same read-out and setting: as for `CC(=O)N(C)c1ccc(Nc2ncc(F)c(N3CCC(CNC(=O)OC(C)(C)C)CC3)n2)cc1` [Example 28, tert-butyl (1-(5-fluoro-2-(4-(N-methylacetamido)phenylamino)pyrimidin-4-yl)piperidin-4-yl)methylcarbamate], the figure is less than 6.00; as for `O[C@H]1CCN(c2nc(Nc3ccc(N4CCNCC4)cc3)nc3[nH]ccc23)C1` [Example 12, (S)-1-(2-(4-(piperazin-1-yl)phenylamino)-7H-pyrrolo[2,3-d]pyrimidin-4-yl)pyrrolidin-3-ol], less than 6.00; as for `CC(=O)N1CCN(c2ccc(Nc3ncc(C(N)=O)c(N4CCCCC4CCO)n3)cc2)CC1` (stereo not drawn) [2-(4-(4-acetylpiperazin-1-yl)phenylamino)-4-(2-(2-hydroxyethyl)piperidin-1-yl)pyrimidine-5-carboxamide], less than 6.00.
Still for that read-out and setting: the figure for `CC(=O)N1CCN(c2ccc(Nc3ncc(C(N)=O)c(N4CCCN(CCO)CC4)n3)cc2)CC1` [2-(4-(4-acetylpiperazin-1-yl)phenylamino)-4-(4-(2-hydroxyethyl)-1,4-diazepan-1-yl)pyrimidine-5-carboxamide] is 6.00 to 7.00; for `COc1cc(Nc2ncc(F)c(N3CCC(CN)CC3)n2)cc(OC)c1OC` [Example 17, 4-(4-(aminomethyl)piperidin-1-yl)-5-fluoro-N-(3,4,5-trimethoxyphenyl)pyrimidin-2-amine] it is 6.00 to 7.00.
